From patent US4115541A (priority 1975, dated 1978)
Like-named read-outs stand apart in the source and are kept apart here.

Legend:
[1] = Distribution of 99mTc-Sn-AEDP and 85Sr in rabbits, carrier effect of AEDP (Example 4); assay type: in vivo, rabbit; conditions: 2 Hrs.
Experimental: Adult New Zealand albino rabbits having an average weight of 3.8 kg were utilized. Strontium-85 was employed as a standard for comparison. […] Each dosage is contained in a volume of 1 ml.
The animals were sacrificed serially from 1 to 24 hours after injection and the activities in major organs were determined by counting multiple samples from each organ in a scintillation well counter (the technetium-99m counts were corrected for the Compton contributions from the strontium-85 activity in the technetium-99m energy window). Multiple samples were counted from the tibia, femur, spine and pelvic bones; the total activity in the skeleton was estimated by assuming the whole skeleton consisted of equal proportions by weight of tibia, spine, femur and pelvis and that the skeletal mass was 10% of the body weight. The red marrow was sampled from the femur and the total marrow was assumed to be 2.2% of the total body weight. Similarly, blood volume was assumed to be 7% and the skeletal muscle 43% of the body weight. The whole liver and both kidneys were weighed and multiple samples from each were counted to measure the total activity in each organ.
In another series of experiments carried out as described in Example 2, the distribution of technetium 99m from its 99m-technetium-tin-methylene diphosphonate complex was determined in albino rabbits, again in comparison with strontium-85.
The distribution of technetium 99m from its 99m technetium-tin-1-amino-ethane-1,1-diphosphonate complex was determined as in Example 3 and compared with the distribution of strontium-85.

[2] = rabbits i.v., ~1 mg/kg EHDP
[3] = rabbits, 2 Hrs.
[4] = rabbits, 2 Hrs.; remark: listed apart in the source
[5] = physical; cited from earlier work

[85Sr+2].[Cl-].[Cl-] [^85 Sr, 85Sr chloride, reference compound]
Blood, % Dose in Whole Organ ([1]; AEDP 0.05 mg/kg): 2.50 % Dose | Liver, % Dose in Whole Organ ([1]; AEDP 0.5 mg/kg): 0.720 % Dose | Blood, % dose/1% body weight ([2]; 1 Hr.): 1.70 % dose/1% body weight | Bone(Avg), % dose in whole organ ([2]; 1 Hr.): 56.0 % dose | Bone(Avg), % dose/1% body weight ([2]; 1 Hr.): 5.60 % dose/1% body weight | Femur, % dose/1% body weight ([2]; 1 Hr.): 4.90 % dose/1% body weight | Kidneys, % Dose in Whole Organ ([2]; 1 Hr.): 0.80 % dose | Kidneys, % dose/1% body weight ([2]; 1 Hr.): 1.75 % dose/1% body weight | Liver, % dose/1% body weight ([2]; 1 Hr.): 0.59 % dose/1% body weight | Marrow, % Dose in Whole Organ ([2]; 1 Hr.): 0.91 % dose | Marrow, % dose/1% body weight ([2]; 1 Hr.): 0.41 % dose/1% body weight | Muscle, % dose/1% body weight ([2]; 1 Hr.): 0.31 % dose/1% body weight | Pelvis, % dose/1% body weight ([2]; 1 Hr.): 7.07 % dose/1% body weight | Spine, % dose/1% body weight ([2]; 1 Hr.): 7.03 % dose/1% body weight | Tibia, % dose/1% body weight ([2]; 1 Hr.): 3.62 % dose/1% body weight | Blood, % dose/1% body weight ([2]; 2 Hrs): 1.01 % dose/1% body weight | Bone(Avg), % dose/1% body weight ([2]; 2 Hrs): 6.44 % dose/1% body weight | Femur, % dose/1% body weight ([2]; 2 Hrs): 5.74 % dose/1% body weight | Kidneys, % Dose in Whole Organ ([2]; 2 Hrs): 0.64 % dose | Kidneys, % dose/1% body weight ([2]; 2 Hrs): 1.40 % dose/1% body weight | Liver, % dose/1% body weight ([2]; 2 Hrs): 0.43 % dose/1% body weight | Marrow, % Dose in Whole Organ ([2]; 2 Hrs): 0.76 % dose | Marrow, % dose/1% body weight ([2]; 2 Hrs): 0.34 % dose/1% body weight | Muscle, % Dose in Whole Organ ([2]; 2 Hrs): 8.8 % dose | Muscle, % dose/1% body weight ([2]; 2 Hrs): 0.21 % dose/1% body weight | Pelvis, % dose/1% body weight ([2]; 2 Hrs): 7.70 % dose/1% body weight | Spine, % dose/1% body weight ([2]; 2 Hrs): 7.59 % dose/1% body weight | Tibia, % dose/1% body weight ([2]; 2 Hrs): 4.73 % dose/1% body weight | Urine, % Dose ([2]; 2 Hrs): 18.0 % dose | Blood, % dose/1% body weight ([2]; 4 Hrs): 0.55 % dose/1% body weight | Bone(Avg), % dose/1% body weight ([2]; 4 Hrs): 6.81 % dose/1% body weight | Femur, % dose/1% body weight ([2]; 4 Hrs): 6.17 % dose/1% body weight | Kidneys, % Dose in Whole Organ ([2]; 4 Hrs): 0.34 % dose | Kidneys, % dose/1% body weight ([2]; 4 Hrs): 0.71 % dose/1% body weight | Liver, % dose/1% body weight ([2]; 4 Hrs): 0.26 % dose/1% body weight | Marrow, % Dose in Whole Organ ([2]; 4 Hrs): 0.50 % dose | Marrow, % dose/1% body weight ([2]; 4 Hrs): 0.23 % dose/1% body weight | Muscle, % dose/1% body weight ([2]; 4 Hrs): 0.15 % dose/1% body weight | Pelvis, % dose/1% body weight ([2]; 4 Hrs): 8.02 % dose/1% body weight | Spine, % dose/1% body weight ([2]; 4 Hrs): 7.82 % dose/1% body weight | Tibia, % dose/1% body weight ([2]; 4 Hrs): 5.13 % dose/1% body weight | Blood, % Dose in Whole Organ ([2]; 24 Hrs): 0.29 % dose | Blood, % dose/1% body weight ([2]; 24 Hrs): 0.04 % dose/1% body weight | Bone(Avg), % dose/1% body weight ([2]; 24 Hrs): 5.21 % dose/1% body weight | Femur, % dose/1% body weight ([2]; 24 Hrs): 4.83 % dose/1% body weight | Kidneys, % Dose in Whole Organ ([2]; 24 Hrs): 0.03 % dose | Kidneys, % dose/1% body weight ([2]; 24 Hrs): 0.06 % dose/1% body weight | Liver, % dose/1% body weight ([2]; 24 Hrs): 0.02 % dose/1% body weight | Marrow, % Dose in Whole Organ ([2]; 24 Hrs): 0.10 % dose | Marrow, % dose/1% body weight ([2]; 24 Hrs): 0.05 % dose/1% body weight | Muscle, % Dose in Whole Organ ([2]; 24 Hrs): 1.00 % dose | Pelvis, % dose/1% body weight ([2]; 24 Hrs): 5.26 % dose/1% body weight | Spine, % dose/1% body weight ([2]; 24 Hrs): 6.47 % dose/1% body weight | Tibia, % dose/1% body weight ([2]; 24 Hrs): 4.27 % dose/1% body weight | Ave Bone, % Dose/1% body weight ([3]; MDP 0.01 mg/kg): 11.85 % Dose/1% body weight | Blood, % dose/1% body weight ([3]; MDP 0.01 mg/kg): 0.47 % Dose/1% body weight | Femur, % dose/1% body weight ([3]; MDP 0.01 mg/kg): 13.93 % Dose/1% body weight | Kidneys, % Dose in Whole Organ ([3]; MDP 0.01 mg/kg): 0.34 % Dose | Kidneys, % dose/1% body weight ([3]; MDP 0.01 mg/kg): 0.54 % Dose/1% body weight | Liver, % Dose in Whole Organ ([3]; MDP 0.01 mg/kg): 0.65 % Dose | Liver, % dose/1% body weight ([3]; MDP 0.01 mg/kg): 0.16 % Dose/1% body weight | Marrow, % Dose in Whole Organ ([3]; MDP 0.01 mg/kg): 0.53 % Dose | Marrow, % dose/1% body weight ([3]; MDP 0.01 mg/kg): 0.24 % Dose/1% body weight | Muscle, % dose/1% body weight ([3]; MDP 0.01 mg/kg): 0.13 % Dose/1% body weight | Pelvis, % dose/1% body weight ([3]; MDP 0.01 mg/kg): 13.55 % Dose/1% body weight | Spine, % dose/1% body weight ([3]; MDP 0.01 mg/kg): 12.78 % Dose/1% body weight | Tibia, % dose/1% body weight ([3]; MDP 0.01 mg/kg): 7.14 % Dose/1% body weight | Ave Bone, % Dose/1% body weight ([3]; MDP 0.05 mg/kg): 7.29 % Dose/1% body weight | Blood, % dose/1% body weight ([3]; MDP 0.05 mg/kg): 0.52 % Dose/1% body weight | Femur, % dose/1% body weight ([3]; MDP 0.05 mg/kg): 9.10 % Dose/1% body weight | Kidneys, % Dose in Whole Organ ([3]; MDP 0.05 mg/kg): 0.46 % Dose | Kidneys, % dose/1% body weight ([3]; MDP 0.05 mg/kg): 0.9 % Dose/1% body weight | Liver, % Dose in Whole Organ ([3]; MDP 0.05 mg/kg): 0.71 % Dose | Liver, % dose/1% body weight ([3]; MDP 0.05 mg/kg): 0.22 % Dose/1% body weight | Marrow, % Dose in Whole Organ ([3]; MDP 0.05 mg/kg): 0.53 % Dose | Marrow, % dose/1% body weight ([3]; MDP 0.05 mg/kg): 0.24 % Dose/1% body weight | Muscle, % dose/1% body weight ([3]; MDP 0.05 mg/kg): 0.14 % Dose/1% body weight | Pelvis, % dose/1% body weight ([3]; MDP 0.05 mg/kg): 8.33 % Dose/1% body weight | Spine, % dose/1% body weight ([3]; MDP 0.05 mg/kg): 6.75 % Dose/1% body weight | Tibia, % dose/1% body weight ([3]; MDP 0.05 mg/kg): 4.94 % Dose/1% body weight | Ave Bone, % Dose/1% body weight ([3]; MDP 0.1 mg/kg): 9.17 % Dose/1% body weight | Blood, % dose/1% body weight ([3]; MDP 0.1 mg/kg): 0.56 % Dose/1% body weight | Femur, % dose/1% body weight ([3]; MDP 0.1 mg/kg): 10.0 % Dose/1% body weight | Kidneys, % Dose in Whole Organ ([3]; MDP 0.1 mg/kg): 0.66 % Dose | Kidneys, % dose/1% body weight ([3]; MDP 0.1 mg/kg): 1.00 % Dose/1% body weight | Liver, % dose/1% body weight ([3]; MDP 0.1 mg/kg): 0.30 % Dose/1% body weight | Marrow, % Dose in Whole Organ ([3]; MDP 0.1 mg/kg): 0.57 % Dose | Marrow, % dose/1% body weight ([3]; MDP 0.1 mg/kg): 0.26 % Dose/1% body weight | Muscle, % dose/1% body weight ([3]; MDP 0.1 mg/kg): 0.22 % Dose/1% body weight | One femur, % dose in whole organ ([3]; MDP 0.1 mg/kg): 2.80 % Dose | Pelvis, % dose/1% body weight ([3]; MDP 0.1 mg/kg): 12.2 % Dose/1% body weight | Spine, % dose/1% body weight ([3]; MDP 0.1 mg/kg): 8.45 % Dose/1% body weight | Tibia, % dose/1% body weight ([3]; MDP 0.1 mg/kg): 6.05 % Dose/1% body weight | Ave Bone, % Dose/1% body weight ([3]; MDP 0.5 mg/kg): 8.77 % Dose/1% body weight | Blood, % dose/1% body weight ([3]; MDP 0.5 mg/kg): 0.45 % Dose/1% body weight | Femur, % dose/1% body weight ([3]; MDP 0.5 mg/kg): 11.32 % Dose/1% body weight | Kidneys, % Dose in Whole Organ ([3]; MDP 0.5 mg/kg): 0.45 % Dose | Kidneys, % dose/1% body weight ([3]; MDP 0.5 mg/kg): 0.69 % Dose/1% body weight | Liver, % Dose in Whole Organ ([3]; MDP 0.5 mg/kg): 0.69 % Dose | Liver, % dose/1% body weight ([3]; MDP 0.5 mg/kg): 0.23 % Dose/1% body weight | Marrow, % Dose in Whole Organ ([3]; MDP 0.5 mg/kg): 0.67 % Dose | Marrow, % dose/1% body weight ([3]; MDP 0.5 mg/kg): 0.30 % Dose/1% body weight | Muscle, % dose/1% body weight ([3]; MDP 0.5 mg/kg): 0.13 % Dose/1% body weight | Pelvis, % dose/1% body weight ([3]; MDP 0.5 mg/kg): 8.68 % Dose/1% body weight | Spine, % dose/1% body weight ([3]; MDP 0.5 mg/kg): 8.92 % Dose/1% body weight | Tibia, % dose/1% body weight ([3]; MDP 0.5 mg/kg): 6.16 % Dose/1% body weight | Kidneys, % Dose in Whole Organ ([4]; EHDP 0.01 mg/kg): 0.43 % Dose | Liver, % Dose in Whole Organ ([4]; EHDP 0.01 mg/kg): 0.74 % Dose | Marrow, % Dose in Whole Organ ([4]; EHDP 0.01 mg/kg): 0.42 % Dose | One Tibia, % Dose in Whole Organ ([4]; EHDP 0.01 mg/kg): 2.60 % Dose | Kidneys, % Dose in Whole Organ ([4]; EHDP 0.05 mg/kg): 0.46 % Dose | Liver, % Dose in Whole Organ ([4]; EHDP 0.05 mg/kg): 0.77 % Dose | Marrow, % Dose in Whole Organ ([4]; EHDP 0.05 mg/kg): 0.61 % Dose | Blood, % Dose in Whole Organ ([4]; EHDP 0.1 mg/kg): 3.10 % Dose | Kidneys, % Dose in Whole Organ ([4]; EHDP 0.1 mg/kg): 0.30 % Dose | Liver, % Dose in Whole Organ ([4]; EHDP 0.1 mg/kg): 0.64 % Dose | Marrow, % Dose in Whole Organ ([4]; EHDP 0.1 mg/kg): 0.43 % Dose | Muscle, % Dose in Whole Organ ([4]; EHDP 0.1 mg/kg): 5.0 % Dose | Kidneys, % Dose in Whole Organ ([4]; EHDP 0.5 mg/kg): 0.48 % Dose | Liver, % Dose in Whole Organ ([4]; EHDP 0.5 mg/kg): 0.76 % Dose | Marrow, % Dose in Whole Organ ([4]; EHDP 0.5 mg/kg): 0.34 % Dose | Urine, % Dose ([4]; EHDP 0.5 mg/kg): 19.67 % Dose | half-life (radionuclide) [5]: 65 days
